Consider eight compounds from US9586952B2, “Polycyclic estrogen receptor modulators and uses thereof” (SERAGON PHARMACEUTICALS, INC., priority 2013, dated 2017).

The test system of assay [1] is MCF-7 cells. Put plainly: MCF7 Viability Assay (Breast Cancer Cell Viability Assay). The assay is classed as cell-based. The following applies: 5 days' compound exposure, CellTiter-Glo; for IC50: Homo sapiens, MCF7, 120 h. The method, then:
MCF-7 cells were adjusted to a concentration of 20,000 cells per mL in RPMI containing 10% FBS and 20 mM HEPES. 16 microliters of the cell suspension (320 cells) was added to each well of a 384 well plate, and the cells were incubated overnight to allow the cells to adhere. The following day an eleven point, serial semilog dilution of each compound was added to the cells in 16 μL at a final concentration ranging from 0.3-0.000003 μM. After 5 days' compound exposure, 16 μL of CellTiter-GLo (Promega, Madison Wis.) was added to the cells, and the relative luminescence units (RLUs) of each well were determined. CellTiter-Glo added to 32 μL of medium without cells was used to obtain a background value. The Percent viability of each sample was determined as follows: (RLU sample-RLU background/RLU untreated cells-RLU background)×100=% viability.

The target in assay [2] is T1, ER-α (Homo sapiens, UniProt P03372).
T1 construct: endogenous in cells; host or cells: MCF-7
T1 sequence (P03372 1-595): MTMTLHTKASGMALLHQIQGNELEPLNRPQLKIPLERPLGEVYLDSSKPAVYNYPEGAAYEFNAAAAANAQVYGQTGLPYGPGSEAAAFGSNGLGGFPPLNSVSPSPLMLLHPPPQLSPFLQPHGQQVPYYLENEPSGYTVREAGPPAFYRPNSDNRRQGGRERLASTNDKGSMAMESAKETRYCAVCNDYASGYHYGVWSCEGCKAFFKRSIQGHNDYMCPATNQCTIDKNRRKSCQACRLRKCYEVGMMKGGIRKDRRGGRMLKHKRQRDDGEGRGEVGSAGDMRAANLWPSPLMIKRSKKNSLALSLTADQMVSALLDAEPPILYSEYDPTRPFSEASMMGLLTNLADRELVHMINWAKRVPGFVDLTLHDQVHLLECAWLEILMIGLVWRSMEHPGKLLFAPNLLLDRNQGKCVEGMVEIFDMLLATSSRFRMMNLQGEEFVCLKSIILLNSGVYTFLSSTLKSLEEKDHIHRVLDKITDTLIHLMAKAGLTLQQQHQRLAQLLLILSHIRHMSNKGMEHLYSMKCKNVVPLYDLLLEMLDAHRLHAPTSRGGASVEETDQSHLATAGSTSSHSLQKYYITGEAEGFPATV
Put plainly: Breast Cancer Cell ER-α In Cell Western Assay (SP1). The following applies: MCF-7 cells, 4 or 24 hr post compound addition, SP1 antibody; for Emax: MCF7, read-out: ER-α In Cell Western Assay (SP1) Max Response; for DC50: read-out: ER-α In Cell Western Assay (SP1) IC50. The assay is classed as cell-based. The method, then:
MCF-7 cells were adjusted to a concentration of 200,000 cells per mL in RPMI containing 10% charcoal-stripped FBS and 20 mM HEPES. 16 microliters of the cell suspension (3200 cells) was added to each well of a poly-D-lysine 384 well plate, and the cells were incubated overnight to allow the cells to adhere. The following day an eleven point, serial semilog dilution of each compound was added to the cells in 16 μL at a final concentration ranging from 0.3-0.000003 μM. At 4 or 24 hr post compound addition, the cells were fixed (10% formalin in PBS) for 20 minutes. Cells were permeablized in PBS 0.1% Triton and blocked with LICOR blocking buffer (50 μl/well, 90′). The wells were then incubated overnight at 4° C. with SP1 rabbit monoclonal Ab (Thermo Scientific) diluted 1:1000 in LICOR blocking buffer/0.1% Tween-20. Wells which were treated with blocking buffer with Tween but no antibody were used as a background control. Wells were washed with 0.1% Tween-20/PBS and then incubated in goat anti-rabbit IRDye™ 800 CW (LICOR Inc.; 1:10000) and DRAQ5 DNA dye (1:2000 for 2 mM stock) diluted in LICOR blocking buffer containing 0.1% Tween-20 and 0.01% SDS for 60 minutes. Cells were washed (50 μl/well, 5′ each) in 0.1% Tween-20/PBS. Plates were scanned on a LICOR Odyssey infrared imaging system. Integrated intensities in the 800 nm channel and 700 nm channel were measured to determine levels of ER and DNA respectively. Percent ER levels were determined as follows: (Integrated intensity 800 nm sample/integrated intensity 700 nm sample)/(Integrated intensity 800 nm untreated cells/integrated intensity 700 nm untreated cells)×100=% ER levels.

Consider `O=C(O)/C=C/c1ccc(/C(=C(\c2ccc(F)cc2Cl)C2CCC2)c2ccc(-c3cncs3)cc2)cc1` [Example 33, (E)-3-(4-((E)-2-(2-Chloro-4-fluorophenyl)-2-cyclobutyl-1-(4-(thiazol-5-yl)phenyl)vinyl)phenyl)acrylic acid], for which, in assay [1], the “MCF7 Viability Assay Max Response” value is on record as “++ (++ = a single % value ≧ 40%)” and the IC50 (usually the concentration at which inhibition is half-maximal) is no more than 100 nM. Also, in assay [2], the Emax is no less than 40% and the DC50 is no more than 100 nM.
As for `O=C(O)/C=C/c1ccc(/C(=C(\c2ccncc2Cl)C2CCC2)c2ccc(-c3cncs3)cc2)cc1` [Example 34, (E)-3-(4-((E)-2-(3-Chloropyridin-4-yl)-2-cyclobutyl-1-(4-(thiazol-5-yl)phenyl)vinyl)phenyl)acrylic acid], in assay [1], the “MCF7 Viability Assay Max Response” value is recorded as “++ (++ = a single % value ≧ 40%)” and the IC50 was no more than 100 nM. In assay [2], the Emax is no less than 40% and the DC50 is no more than 100 nM.
Take `Cc1cscc1/C(=C(\c1ccc(/C=C/C(=O)O)cc1)c1ccc(-c2cncs2)cc1)C1CCC1` [Example 35, (E)-3-(4-((E)-2-Cyclobutyl-2-(4-methylthiophen-3-yl)-1-(4-(thiazol-5-yl)phenyl)vinyl)phenyl)acrylic acid]: in assay [1], the “MCF7 Viability Assay Max Response” value is given as “++ (++ = a single % value ≧ 40%)” and the IC50 was no more than 100 nM. Besides, in assay [2], the Emax was no less than 40% and the DC50 is no more than 100 nM.
As to `O=C(O)/C=C/c1ccc(/C(=C(\c2ccc(F)cc2Cl)C2CCC2)c2ccc(N3CCOCC3)cc2)cc1` [Example 36, (E)-3-(4-((E)-2-(2-Chloro-4-fluorophenyl)-2-cyclobutyl-1-(4-morpholinophenyl)vinyl)phenyl)acrylic acid], in assay [1], the “MCF7 Viability Assay Max Response” value is listed as “++ (++ = a single % value ≧ 40%)” and the IC50 is no more than 100 nM. Also, in assay [2], the Emax is no less than 40% and the DC50 is no more than 100 nM.
For the compound `O=C(O)/C=C/c1ccc(/C(=C(\c2ccc(F)cc2Cl)C2CCC2)c2ccc(-c3cn[nH]c3)cc2)cc1` [Example 37, (E)-3-(4-((E)-1-(4-(1H-Pyrazol-4-yl)phenyl)-2-(2-chloro-4-fluorophenyl)-2-cyclobutylvinyl)phenyl)acrylic acid], in assay [1], the “MCF7 Viability Assay Max Response” value is “++ (++ = a single % value ≧ 40%)” and the IC50 is no more than 100 nM. Moreover, in assay [2], the Emax is no less than 40% and the DC50 was no more than 100 nM.
On to `Cc1cscc1/C(=C(\c1ccc(/C=C/C(=O)O)cc1)c1ccc(-c2cn[nH]c2)cc1)C1CCC1` [Example 38, (E)-3-(4-((E)-1-(4-(1H-Pyrazol-4-yl)phenyl)-2-cyclobutyl-2-(4-methylthiophen-3-yl)vinyl)phenyl)acrylic acid], for which, in assay [1], the “MCF7 Viability Assay Max Response” value is “++ (++ = a single % value ≧ 40%)” and the IC50 was no more than 100 nM. Further, in assay [2], the Emax was no less than 40% and the DC50 is no more than 100 nM.
For the compound `COc1cc(C)c(/C(=C(\c2ccc(/C=C/C(=O)O)cc2)c2ccc(N3CCOCC3)cc2)C2CCC2)cn1` [Example 39, (E)-3-(4-((E)-2-Cyclobutyl-2-(6-methoxy-4-methylpyridin-3-yl)-1-(4-morpholinophenyl)vinyl)phenyl)acrylic acid], in assay [1], the “MCF7 Viability Assay Max Response” value is “++ (++ = a single % value ≧ 40%)” and the IC50 is no more than 100 nM. Besides, in assay [2], the Emax was no less than 40% and the DC50 was no more than 100 nM.
As to `Cc1cccnc1/C(=C(\c1ccc(/C=C/C(=O)O)cc1)c1ccc(-c2cn[nH]c2)cc1)C1CCC1` [Example 40, (E)-3-(4-((E)-1-(4-(1H-Pyrazol-4-yl)phenyl)-2-cyclobutyl-2-(3-methylpyridin-2-yl)vinyl)phenyl)acrylic acid], in assay [1], the “MCF7 Viability Assay Max Response” value is “++ (++ = a single % value ≧ 40%)” and the IC50 was greater than 100 nM. Further, in assay [2], the Emax is no less than 40% and the DC50 was no more than 100 nM.
